Results reported in paper PMC5218480 (PLoS ONE, 2017).

System: MV-4-11 cells
Test: Gene expression microarray analysis (Affymetrix PrimeView) and GSEA
Assay type: cell-based, human
Design: RFU PODN (11730768_x_at) / Fold change /veh PODN (11730768_x_at) / RFU LINC00158 (11744669_a_at) / Fold change /veh LINC00158 (11744669_a_at) / RFU DUSP10 (11751237_a_at) / Fold change /veh DUSP10 (11751237_a_at) / RFU ID3 (11757404_x_at) / Fold change /veh ID3 (11757404_x_at) / RFU PLEKHG5 (11737974_s_at) / Fold change /veh PLEKHG5 (11737974_s_at) / RFU LRRC4B (11730491_at) / Fold change /veh LRRC4B (11730491_at) / RFU GIMAP4 (11747438_a_at) / Fold change /veh GIMAP4 (11747438_a_at) / RFU KRT8 (11758183_x_at) / Fold change /veh KRT8 (11758183_x_at) / RFU CNN1 (11734310_a_at) / Fold change /veh CNN1 (11734310_a_at) / RFU VPS37D (11726825_at) / Fold change /veh VPS37D (11726825_at) / RFU C10orf10 (11716522_x_at) / Fold change /veh C10orf10 (11716522_x_at) / RFU KIR2DL2 /// KIR2DL4 /// KIR2DL5A /// KIR2DL5B /// KIR2DS1 /// KIR2DS2 /// KIR2DS3 /// KIR2DS4 /// KIR3DL3 /// KIR3DL3 /// KIR3DS1 (11738374_at) / Fold change /veh KIR2DL2 /// KIR2DL4 /// KIR2DL5A /// KIR2DL5B /// KIR2DS1 /// KIR2DS2 /// KIR2DS3 /// KIR2DS4 /// KIR3DL3 /// KIR3DL3 /// KIR3DS1 (11738374_at) / RFU C1QL1 (11718748_at) / Fold change /veh C1QL1 (11718748_at) / RFU TMPRSS4 (11747572_a_at) / Fold change /veh TMPRSS4 (11747572_a_at) / RFU HAMP (11756126_x_at) / Fold change /veh HAMP (11756126_x_at) / RFU RNFT2 (11725882_a_at) / Fold change /veh RNFT2 (11725882_a_at) / RFU NR4A2 (11747474_a_at) / Fold change /veh NR4A2 (11747474_a_at) / RFU ABCC12 (11746883_a_at) / Fold change /veh ABCC12 (11746883_a_at) / RFU TMEM136 (11760407_x_at) / Fold change /veh TMEM136 (11760407_x_at) / RFU CLDN22 /// WWC2 (11732394_at) / Fold change /veh CLDN22 /// WWC2 (11732394_at) / RFU HLA-DPB1 (11760878_x_at) / Fold change /veh HLA-DPB1 (11760878_x_at) / RFU SPINT1 (11716480_a_at) / Fold change /veh SPINT1 (11716480_a_at) / RFU GAP43 (11754022_s_at) / Fold change /veh GAP43 (11754022_s_at) / RFU A4GNT (11735810_at) / Fold change /veh A4GNT (11735810_at) / RFU PRB3 (11715151_x_at) / Fold change /veh PRB3 (11715151_x_at) / RFU TUBB4B (11761932_at) / Fold change /veh TUBB4B (11761932_at) / RFU CAPN14 (11732068_a_at) / Fold change /veh CAPN14 (11732068_a_at) / RFU TMCC2 (11721928_a_at) / Fold change /veh TMCC2 (11721928_a_at) / RFU IRGQ (11745062_a_at) / Fold change /veh IRGQ (11745062_a_at) / RFU FAM174B (11720279_a_at) / Fold change /veh FAM174B (11720279_a_at) / RFU TMPRSS4 (11748680_a_at) / Fold change /veh TMPRSS4 (11748680_a_at) / RFU FAM212B (11763350_a_at) / Fold change /veh FAM212B (11763350_a_at) / RFU PLEKHG5 (11743358_a_at) / Fold change /veh PLEKHG5 (11743358_a_at) / RFU ZSCAN30 (11745921_a_at) / Fold change /veh ZSCAN30 (11745921_a_at) / RFU CMKLR1 (11741424_a_at) / Fold change /veh CMKLR1 (11741424_a_at) / RFU LOC101060620 /// MAPK8IP1 (11723275_at) / Fold change /veh LOC101060620 /// MAPK8IP1 (11723275_at) / RFU SPTSSB (11747773_x_at) / Fold change /veh SPTSSB (11747773_x_at) / RFU PRSS12 (11739890_at) / Fold change /veh PRSS12 (11739890_at) / RFU BIN1 (11741810_x_at) / Fold change /veh BIN1 (11741810_x_at) / RFU WNT11 (11732464_a_at) / Fold change /veh WNT11 (11732464_a_at) / RFU C10orf10 (11716521_a_at) / Fold change /veh C10orf10 (11716521_a_at) / RFU C5orf56 (11738089_at) / Fold change /veh C5orf56 (11738089_at) / RFU CYB561 (11721691_x_at) / Fold change /veh CYB561 (11721691_x_at) / RFU ANKRD19P (11752326_a_at) / Fold change /veh ANKRD19P (11752326_a_at) / RFU OR2T12 /// OR2T33 /// OR2T8 (11738714_s_at) / Fold change /veh OR2T12 /// OR2T33 /// OR2T8 (11738714_s_at) / RFU VCAN (11748164_a_at) / Fold change /veh VCAN (11748164_a_at) / RFU JSRP1 (11732532_at) / Fold change /veh JSRP1 (11732532_at) / RFU KRTAP10-11 (11738290_x_at) / Fold change /veh KRTAP10-11 (11738290_x_at) / RFU MYO3A (11730013_a_at) / Fold change /veh MYO3A (11730013_a_at) / RFU EBF3 (11725865_a_at) / Fold change /veh EBF3 (11725865_a_at) / RFU CAMK2N1 (11719241_x_at) / Fold change /veh CAMK2N1 (11719241_x_at) / RFU C5orf56 (11738088_a_at) / Fold change /veh C5orf56 (11738088_a_at) / RFU OLFML3 (11715873_a_at) / Fold change /veh OLFML3 (11715873_a_at) / RFU LOC100653217 /// NTM (11731650_a_at) / Fold change /veh LOC100653217 /// NTM (11731650_a_at) / RFU MAPK11 (11762145_a_at) / Fold change /veh MAPK11 (11762145_a_at) / RFU FIZ1 (11724087_x_at) / Fold change /veh FIZ1 (11724087_x_at) / RFU OASL (11726364_x_at) / Fold change /veh OASL (11726364_x_at) / RFU SOX15 (11748057_x_at) / Fold change /veh SOX15 (11748057_x_at) / RFU CD79A (11719716_a_at) / Fold change /veh CD79A (11719716_a_at) / RFU HIST1H1D (11736915_at) / Fold change /veh HIST1H1D (11736915_at) / RFU CASKIN2 (11723855_a_at) / Fold change /veh CASKIN2 (11723855_a_at) / RFU LOC730098 (11760151_x_at) / Fold change /veh LOC730098 (11760151_x_at) / RFU OR4N2 (11742367_at) / Fold change /veh OR4N2 (11742367_at) / RFU PRRT2 (11749266_a_at) / Fold change /veh PRRT2 (11749266_a_at) / RFU SNX32 (11753110_a_at) / Fold change /veh SNX32 (11753110_a_at) / RFU CDHR5 (11726645_a_at) / Fold change /veh CDHR5 (11726645_a_at) / RFU RCAN1 (11760418_a_at) / Fold change /veh RCAN1 (11760418_a_at) / RFU FAM167A (11723789_a_at) / Fold change /veh FAM167A (11723789_a_at) / RFU FAM26E (11764081_at) / Fold change /veh FAM26E (11764081_at) / RFU ISYNA1 (11749810_s_at) / Fold change /veh ISYNA1 (11749810_s_at) / RFU ACY1 (11761880_at) / Fold change /veh ACY1 (11761880_at) / RFU 11764098_at / Fold change /veh 11764098_at / RFU SAMD14 (11745864_x_at) / Fold change /veh SAMD14 (11745864_x_at) / RFU NPB (11741838_a_at) / Fold change /veh NPB (11741838_a_at) / RFU TMPRSS6 (11731388_a_at) / Fold change /veh TMPRSS6 (11731388_a_at) / RFU KRTAP10-2 (11738614_at) / Fold change /veh KRTAP10-2 (11738614_at) / RFU ARHGAP8 /// PRR5-ARHGAP8 (11727945_x_at) / Fold change /veh ARHGAP8 /// PRR5-ARHGAP8 (11727945_x_at) / RFU KRTAP5-7 /// NADSYN1 (11734609_at) / Fold change /veh KRTAP5-7 /// NADSYN1 (11734609_at) / RFU RASL12 (11751679_a_at) / Fold change /veh RASL12 (11751679_a_at) / RFU CDKN2B (11736163_a_at) / Fold change /veh CDKN2B (11736163_a_at) / RFU PRF1 (11729649_at) / Fold change /veh PRF1 (11729649_at) / RFU, ZNF638 /// ZNF638-IT1 / Fold change vs veh, ZNF638 /// ZNF638-IT1 / RFU, PANK3 / Fold change vs veh, PANK3 / RFU, SH3YL1 / Fold change vs veh, SH3YL1 / RFU, ZEB2 / Fold change vs veh, ZEB2 / RFU, NRIP1 / Fold change vs veh, NRIP1 / RFU, PTTG1IP / Fold change vs veh, PTTG1IP / RFU, CAPN2 / Fold change vs veh, CAPN2 / RFU, MED14 / Fold change vs veh, MED14 / RFU, SNORA58 / Fold change vs veh, SNORA58 / RFU, C1orf63 / Fold change vs veh, C1orf63 / RFU, LRRFIP1 / Fold change vs veh, LRRFIP1 / RFU, NDUFAF7 / Fold change vs veh, NDUFAF7 / RFU, SLC12A2 / Fold change vs veh, SLC12A2 / RFU, IBTK / Fold change vs veh, IBTK / RFU, ESF1 / Fold change vs veh, ESF1 / Fold change vs veh, TMEM50B / RFU, TAOK1 / Fold change vs veh, TAOK1 / RFU, ACBD3 / Fold change vs veh, ACBD3 / RFU, TMA16 / Fold change vs veh, TMA16 / RFU, RWDD3 / Fold change vs veh, RWDD3 / RFU, BCAT1 / Fold change vs veh, BCAT1 / RFU, EDEM3 / Fold change vs veh, EDEM3 / RFU, TMEM33 / Fold change vs veh, TMEM33 / RFU, WDR75 / Fold change vs veh, WDR75 / RFU, AHCTF1 / Fold change vs veh, AHCTF1 / RFU, TFRC / Fold change vs veh, TFRC / RFU, ZDHHC17 / Fold change vs veh, ZDHHC17 / RFU, NOM1 / Fold change vs veh, NOM1 / RFU, ARL8B / Fold change vs veh, ARL8B / RFU, ZBTB11 / Fold change vs veh, ZBTB11 / RFU, TAMM41 / Fold change vs veh, TAMM41 / RFU, KIAA1704 /// LOC100996395 / Fold change vs veh, KIAA1704 /// LOC100996395 / RFU, ING1 / Fold change vs veh, ING1 / RFU, TRMT61B / Fold change vs veh, TRMT61B / RFU, FUBP3 / Fold change vs veh, FUBP3 / RFU, TP53 / Fold change vs veh, TP53 / RFU, TNKS2 / Fold change vs veh, TNKS2 / RFU, ZFP14 / Fold change vs veh, ZFP14 / RFU, ACTR2 / Fold change vs veh, ACTR2 / RFU, PPP3R1 / Fold change vs veh, PPP3R1 / RFU, PIK3R1 / Fold change vs veh, PIK3R1 / RFU, HNRNPA1 / Fold change vs veh, HNRNPA1 / RFU, RNF170 / Fold change vs veh, RNF170 / RFU, ZNF28 / Fold change vs veh, ZNF28 / RFU, RNGTT / Fold change vs veh, RNGTT / RFU, OGT / Fold change vs veh, OGT / RFU, BRD1 / Fold change vs veh, BRD1 / RFU, MARS / Fold change vs veh, MARS / RFU, ZNF655 / Fold change vs veh, ZNF655 / RFU, FAHD1 / Fold change vs veh, FAHD1 / RFU, BDP1 / Fold change vs veh, BDP1 / RFU, LRRCC1 / Fold change vs veh, LRRCC1 / RFU, ARID1A / Fold change vs veh, ARID1A / RFU, ZNF146 / Fold change vs veh, ZNF146 / RFU, ZNF330 / Fold change vs veh, ZNF330 / RFU, GPN3 / Fold change vs veh, GPN3 / RFU, C9orf123 / Fold change vs veh, C9orf123 / RFU, N4BP2L2 / Fold change vs veh, N4BP2L2 / RFU, ARFIP1 / Fold change vs veh, ARFIP1 / RFU, FAM179B / Fold change vs veh, FAM179B / RFU, BCL10 / Fold change vs veh, BCL10 / RFU, UHRF1BP1L / Fold change vs veh, UHRF1BP1L / RFU, BET1 / Fold change vs veh, BET1 / RFU, CNOT2 / Fold change vs veh, CNOT2 / RFU, ZNF268 / Fold change vs veh, ZNF268 / Fold change vs veh, ZNF507 / RFU, DGCR2 / Fold change vs veh, DGCR2 / RFU, WDSUB1 / Fold change vs veh, WDSUB1 / Fold change vs veh, HSP90B1 /// MIR3652 / RFU, ADSS / Fold change vs veh, ADSS / RFU, GK / Fold change vs veh, GK / RFU, ZNF148 / Fold change vs veh, ZNF148 / RFU, TAF9 / Fold change vs veh, TAF9 / RFU, SLC1A5 / Fold change vs veh, SLC1A5 / RFU, SLMO2 / Fold change vs veh, SLMO2 / RFU, ABCC4 / Fold change vs veh, ABCC4 / RFU, LOC101060439 /// RAP1B / Fold change vs veh, LOC101060439 /// RAP1B / RFU, RFX7 / Fold change vs veh, RFX7 / RFU, GTPBP10 / Fold change vs veh, GTPBP10 / RFU, CNEP1R1 / Fold change vs veh, CNEP1R1 / RFU, BIVM-ERCC5 /// ERCC5 / Fold change vs veh, BIVM-ERCC5 /// ERCC5 / RFU, ILF3 / Fold change vs veh, ILF3 / RFU 11762660_at / Fold change /veh 11762660_at / RFU VCAN (11757783_s_at) / Fold change /veh VCAN (11757783_s_at) / RFU DDX43 (11728927_at) / Fold change /veh DDX43 (11728927_at) / RFU KRT8 (11758188_x_at) / Fold change /veh KRT8 (11758188_x_at) / RFU NKD1 (11759106_at) / Fold change /veh NKD1 (11759106_at) / RFU SRD5A1 (11742802_a_at) / Fold change /veh SRD5A1 (11742802_a_at) / RFU TPSAB1 /// TPSB2 (11721975_s_at) / Fold change /veh TPSAB1 /// TPSB2 (11721975_s_at) / RFU GSTM3 (11746129_a_at) / Fold change /veh GSTM3 (11746129_a_at) / RFU IL23R (11737362_x_at) / Fold change /veh IL23R (11737362_x_at) / RFU TMEM51 (11727254_a_at) / Fold change /veh TMEM51 (11727254_a_at) / RFU PIWIL2 (11732686_x_at) / Fold change /veh PIWIL2 (11732686_x_at) / RFU ORM1 (11744905_x_at) / Fold change /veh ORM1 (11744905_x_at) / RFU CCDC152 (11743942_at) / Fold change /veh CCDC152 (11743942_at) / RFU ECM1 (11717891_a_at) / Fold change /veh ECM1 (11717891_a_at) / RFU IL23R (11748794_a_at) / Fold change /veh IL23R (11748794_a_at) / RFU TNFAIP8L3 (11732012_x_at) / Fold change /veh TNFAIP8L3 (11732012_x_at) / RFU MBOAT4 (11741988_at) / Fold change /veh MBOAT4 (11741988_at) / RFU 11764193_at / Fold change /veh 11764193_at / RFU TMEM53 (11763286_at) / Fold change /veh TMEM53 (11763286_at) / RFU MAGEB2 (11727129_at) / Fold change /veh MAGEB2 (11727129_at) / RFU TMEM200A (11744735_a_at) / Fold change /veh TMEM200A (11744735_a_at) / RFU CCDC152 (11751479_a_at) / Fold change /veh CCDC152 (11751479_a_at) / RFU FAM211A (11726209_a_at) / Fold change /veh FAM211A (11726209_a_at) / RFU RGS16 (11746705_a_at) / Fold change /veh RGS16 (11746705_a_at) / RFU VCAN (11755009_s_at) / Fold change /veh VCAN (11755009_s_at) / RFU RHOB (11743442_s_at) / Fold change /veh RHOB (11743442_s_at) / RFU RGS16 (11720943_a_at) / Fold change /veh RGS16 (11720943_a_at) / RFU RGS16 (11720944_at) / Fold change /veh RGS16 (11720944_at) / RFU, VPS4B / Fold change vs veh, VPS4B / RFU, CREB1 / Fold change vs veh, CREB1 / RFU, DNAJC13 / Fold change vs veh, DNAJC13 / RFU, GNAQ / Fold change vs veh, GNAQ / RFU, CDK5R1 / Fold change vs veh, CDK5R1 / RFU, ZRANB3 / Fold change vs veh, ZRANB3 / RFU, CUL4A / Fold change vs veh, CUL4A / RFU, CCNY / Fold change vs veh, CCNY / RFU, UFL1 / Fold change vs veh, UFL1 / RFU, COG3 / Fold change vs veh, COG3 / RFU, DIAPH2 / Fold change vs veh, DIAPH2 / RFU, SKA2 / Fold change vs veh, SKA2 / RFU, AFF3 / Fold change vs veh, AFF3 / RFU, LMF1 / Fold change vs veh, LMF1 / RFU, IPO11 / Fold change vs veh, IPO11 / RFU, DFFB / Fold change vs veh, DFFB / RFU, FOXP1 / Fold change vs veh, FOXP1 / RFU, CARD8 / Fold change vs veh, CARD8 / RFU, STRN3 / Fold change vs veh, STRN3 / RFU, ADK / Fold change vs veh, ADK / RFU, RASSF2 / Fold change vs veh, RASSF2 / RFU, WIPF1 / Fold change vs veh, WIPF1 / RFU, LARP1B / Fold change vs veh, LARP1B / RFU, RASA1 / Fold change vs veh, RASA1 / RFU, RB1 / Fold change vs veh, RB1 / RFU, PPFIA1 / Fold change vs veh, PPFIA1 / RFU, MAT2A / Fold change vs veh, MAT2A / RFU, CCT5 / Fold change vs veh, CCT5 / RFU, WDR92 / Fold change vs veh, WDR92 / RFU, CUX1 / Fold change vs veh, CUX1 / RFU, TTC7A / Fold change vs veh, TTC7A / RFU, TMEM135 / Fold change vs veh, TMEM135 / RFU, DEPTOR / Fold change vs veh, DEPTOR / RFU, CPM / Fold change vs veh, CPM / RFU, DNAJB6 / Fold change vs veh, DNAJB6 / RFU, CACNA2D3 / Fold change vs veh, CACNA2D3 / RFU, DTX4 / Fold change vs veh, DTX4 / RFU, TFCP2 / Fold change vs veh, TFCP2 / RFU, GMCL1 /// GMCL1P1 / Fold change vs veh, GMCL1 /// GMCL1P1 / RFU, AEBP2 / Fold change vs veh, AEBP2 / RFU, SNHG1 /// SNORD22 /// SNORD25 /// SNORD26 /// SNORD27 /// SNORD28 /// SNORD29 /// SNORD31 / Fold change vs veh, SNHG1 /// SNORD22 /// SNORD25 /// SNORD26 /// SNORD27 /// SNORD28 /// SNORD29 /// SNORD31 / Fold change (Aza/veh), C12orf56 (ProbeSet 11735607_a_at) / Fold change (ACY-1035/veh), C12orf56 (ProbeSet 11735607_a_at) / Fold change (Aza/veh), FGFR1OP (ProbeSet 11751329_s_at) / Fold change (ACY-1035/veh), FGFR1OP (ProbeSet 11751329_s_at) / Fold change (Aza/veh), VPS36 (ProbeSet 11739960_a_at) / Fold change (ACY-1035/veh), VPS36 (ProbeSet 11739960_a_at) / RFU SYPL1 (11715823_x_at) / Fold change /veh SYPL1 (11715823_x_at) / RFU IGFBP7 (11715501_s_at) / Fold change /veh IGFBP7 (11715501_s_at) / RFU REEP3 (11722064_at) / Fold change /veh REEP3 (11722064_at) / RFU IGLL1 (11728026_x_at) / Fold change /veh IGLL1 (11728026_x_at): dose or concentration left out as unconfirmed
Details: ProbeSet 11718569_a_at; LIST D

## Nc1ncn([C@@H]2O[C@H](CO)[C@@H](O)[C@H]2O)c(=O)n1 [azacitidine]
  RFU, WIPF1: 81.62 RFU
